Reference: patent US20220151954A1, “TREATMENT OF SEBACEOUS GLAND DISORDERS” (priority 2019, published 2022)

Tests used:
P. acnes = assay: Propionibacterium acnes growth inhibition (absorbance at 600 nm); format: cell-based
Procedure: A streak plate isolation technique was performed to isolate a single homogenous colony of P. acnes. A pinch of one colony was inoculated from agar plate into U-shape falcon tube containing 4 ml of broth media. Cultures were incubated at 37° C. in reduced oxygen-conditions for 72 hours. The cultures were then diluted and grown to mid-log phase (O.D. 0.5; 600 nm) for 3 hr.
The bacteria were incubated with the test components (cannabidiol and/or extract of C. asiatica) at different concentrations in triplicate at a final volume of 200 μl in an N-pre-flushed U shape 96-well plates for 3 hr. An additional blank control group was included (media w/o bacteria). Also, a negative (bacteria without test samples) control groups was included in the assay. In addition, combinations of the these components were tested (see Table 2).
The absorbance was recorded at 600 nm. The absorbance of the blank control was subtracted from all measurements. The change in bacterial number in response to increasing test sample concentrations was plotted.

[1] = test system: IL-1β secretion by U937 cells; assay: Inhibition of secretion of IL-1β by lipopolysaccharide-stimulated U937 cells (ELISA); format: cell-based
Procedure: (§1) U937 cells, were thawed and treated according to the manufacturer's instructions. The cultures were incubated for recovery at 37° C. with 5% CO2 until 70-80% confluency was reached (visual estimation). Then, approx. 0.3×10^6 ¢/mL (determined by counting) were seeded in 96 well plates containing 200 μL/well of complete growth medium. The cells were incubated at 37° C. with 5% CO2 until 60% confluency was reached (visual estimation, typically—after 48 hr).
(§2) After the cells had reached the required confluency, the medium was replaced with pre-prepared growth medium supplemented with 1 μg/mL of lipopolysaccharides, and the test components were added, at a final volume of 200 μL/well. The following control groups were also added: Naïve cells, vehicle control, stimulation control, stimulation vehicle control. A proper blank control was subtracted from the measurements.
(§3) The cells were incubated for 24 hr. at 37° C. with 5% CO2. After the incubation, the conditioned medium of the different treatment groups was collected under standardized conditions and centrifuged at 250×g for 5 min to remove particulates. Clear supernatants were frozen at −70° C. until cytokines analyses. The secretion levels of IL-1β and TNFα (a major inflammatory marker) were quantified by commercial ELISA.

[2] = test system: TNFα secretion by U937 cells; assay: Inhibition of secretion of TNFα by lipopolysaccharide-stimulated U937 cells (ELISA); format: cell-based
Procedure: as §1, §2, §3

[3] = test system: PGE2 secretion by RAW 264.7 cells; assay: Secretion of PGE2 by LPS-stimulated RAW 264.7 cells; format: cell-based
Procedure: RAW 264.7 cells (approx. 2.5×10^5 ¢/ml, by counting) were seeded in 96 well plates containing 170 μl/well of complete growth medium. The cells were incubated at 37° C. with 5% CO2 for 24 hr. […] In addition, naïve cells, vehicle-treated cells, Stimulated Control, and Stimulated Vehicle Control served as negative controls. Dexamethasone served as a positive control for anti-inflammatory assay. A Blank control group was included in the assay.
The spent media from all test groups were collected under standardized conditions and centrifuged at 250 g for 5 min to remove particulates. Clear supernatants were frozen at −70° C. until analysis. The secretion levels of PGE2 (an important inflammatory marker) were determined.

human sebocytes = conditions: cited from earlier work
[4] = Homo sapiens, U-937, each component present at 10 μg/ml, 1 μg/mL lipopolysaccharides, 24 hr
[5] = cultured human sebocytes and human skin organ culture

## C=C(C)[C@@H]1CCC(C)=C[C@H]1c1c(O)cc(CCCCC)cc1O [Cannabidiol, cannabidiol]
P. acnes; Cutibacterium acnes, Sample 1: cannabidiol 1.25 μg/ml, C. asiatica 0, 3 hr
  inhibition at 1.25 µg/mL: -10.9%
P. acnes; Cutibacterium acnes, Sample 2: cannabidiol 2.5 μg/ml, C. asiatica 0, 3 hr
  inhibition at 2.5 µg/mL: 5.7%
P. acnes; summary of Table 2
  effect on growth of P. acnes (in words): neither cannabidiol nor extract of C. asiatica significantly inhibits growth
[1]; [4]
  inhibition at 10 µg/mL: 28.4%
[1]; summary of Table 3
  effect on secretion of IL-1β (in words): attenuates
[2]; [4]
  inhibition at 10 µg/mL: 48%
[2]; summary of Table 3
  effect on secretion of TNFα (in words): attenuates
[3]; Mus musculus, RAW264.7, Sample 1: cannabidiol 1.25 μg/ml alone, RAW 264.7, LPS 12.5 ng/ml
  inhibition at 1.25 µg/mL: 1.9%
[3]; Mus musculus, RAW264.7, Sample 2: cannabidiol 2.5 μg/ml alone, RAW 264.7, LPS 12.5 ng/ml
  inhibition at 2.5 µg/mL: 24%
[3]; at a concentration of 2.5 μg/ml
  effect on secretion of PGE2 (in words): attenuates
Human sebocytes; [5]
  effect on lipogenic actions of arachidonic acid, linoleic acid + testosterone (in words): inhibited the lipogenic actions
  effect on sebocyte proliferation (in words): suppressed sebocyte proliferation
Human sebocytes; human sebocytes
  anti-inflammatory action (in words): exerted complex anti-inflammatory actions
